Source: DBAASP
≈ marks a conversion by molar mass, not a printed value.

Assays:
Test in all cases: ≥ marks a high value that may be exact or a test limit, other limits are often not marked, values filed in µg/mL are converted to µM
Escherichia coli BL21 = test system: Escherichia coli BL21
[1] = test system: Pseudomonas aeruginosa PAO1
[2] = test system: Streptococcus pyogenes M1T1 5448
Acinetobacter baumannii = test system: Acinetobacter baumannii
[3] = test system: Bacillus cereus ATCC 11778
[4] = test system: Enterococcus faecalis ATCC 29212
[5] = test system: Escherichia coli ATCC 25922
Escherichia coli O157:H7 = test system: Escherichia coli O157:H7
[6] = test system: Listeria monocytogenes 10403s
[7] = test system: Pseudomonas aeruginosa ATCC 27853
[8] = test system: Salmonella enterica subsp. enterica serovar Typhimurium ATCC 13311
[9] = test system: Shigella sonnei ATCC 11060
[10] = test system: Staphylococcus aureus ATCC 25923
[11] = test system: Staphylococcus epidermidis ATCC 12228
Vibrio cholerae O1 Inaba = test system: Vibrio cholerae O1 Inaba
Escherichia coli UB1005 = test system: Escherichia coli UB1005
[12] = test system: Salmonella enterica subsp. enterica serovar Choleraesuis CVCC 503
[13] = test system: Salmonella enterica subsp. enterica serovar Pullorum C79-13
[14] = test system: Salmonella enterica subsp. enterica serovar Typhimurium ATCC 14028
[15] = test system: Salmonella enterica subsp. enterica serovar Typhimurium C77-31
[16] = test system: Staphylococcus aureus ATCC 29213
[17] = test system: Staphylococcus aureus ATCC 43300
Staphylococcus aureus = test system: Staphylococcus aureus
Streptococcus agalactiae = test system: Streptococcus agalactiae
Escherichia coli KF111 = test system: Escherichia coli KF111
Escherichia coli KF130 = test system: Escherichia coli KF130
Escherichia coli = test system: Escherichia coli
[18] = test system: Pseudomonas aeruginosa H374
[19] = test system: Pseudomonas aeruginosa H744
[20] = test system: Pseudomonas aeruginosa K799
[21] = test system: Salmonella enterica subsp. enterica serovar Typhimurium ATCC 14028s
[22] = test system: Staphylococcus epidermidis

Question: For `CC[C@H](C)[C@H](NC(=O)[C@H](CCCCN)NC(=O)[C@H](CCCCN)NC(=O)[C@H](CCCCN)NC(=O)[C@H](CC(C)C)NC(=O)[C@H](CCCN=C(N)N)NC(=O)[C@H](CCC(N)=O)NC(=O)[C@H](Cc1ccccc1)NC(=O)[C@@H](NC(=O)[C@@H](NC(=O)[C@H](CCC(=O)O)NC(=O)[C@H](CCCCN)NC(=O)CNC(=O)[C@H](C)N)[C@@H](C)O)[C@@H](C)CC)C(=O)N[C@@H](CCC(N)=O)C(=O)N[C@@H](CCC(=O)O)C(=O)N[C@@H](CCCCN)C(=O)N[C@@H](Cc1c[nH]c2ccccc12)C(=O)N[C@@H](CCCCN)C(=O)N[C@@H](CCCN=C(N)N)C(=O)N[C@@H](C)C(=O)N[C@H](C(=O)N[C@H](C(=O)N[C@@H](C)C(=O)N[C@@H](Cc1c[nH]c2ccccc12)C(=O)O)[C@@H](C)CC)[C@@H](C)O` [AGKETIFQRLKKKIQEKWKRATIAW], which MIC (Escherichia coli BL21) is on record?
Answer: 1 µM (≈ 3.06 µg/mL)

Question: And the MIC [1]?
Answer: 16 µM (≈ 48.9 µg/mL)

Question: What about the MIC [2] of the same molecule?
Answer: 4 µM (≈ 12.2 µg/mL)

Question: What does the source list for `CC[C@H](C)[C@H](NC(=O)[C@H](CC(=O)O)NC(=O)[C@H](Cc1ccccc1)NC(=O)[C@H](CC(C)C)NC(=O)CN)C(=O)N[C@H](C(=O)N[C@@H](CCCCN)C(=O)N[C@@H](CCCCN)C(=O)N[C@H](C(=O)N[C@@H](C)C(=O)NCC(N)=O)C(C)C)C(C)C` [GLFDIVKKVAG]?
Answer: MIC (Acinetobacter baumannii): ≥ 218 µM; MIC [3]: ≥ 218 µM; MIC [4]: > 218 µM; MIC [5]: > 218 µM; MIC (Escherichia coli O157:H7): ≥ 218 µM; MIC [6]: ≥ 218 µM; MIC [7]: > 218 µM; MIC [8]: ≥ 218 µM; MIC [9]: ≥ 218 µM; MIC [10]: > 218 µM; MIC [11]: > 218 µM; MIC (Vibrio cholerae O1 Inaba): ≥ 218 µM

Question: What does the source list for `CC[C@H](C)[C@H](N)C(=O)N[C@@H](CS)C(=O)N[C@@H](CCCN=C(N)N)C(=O)N[C@@H](CCCCN)C(=O)N1CCC[C@H]1C(=O)N[C@H](C(=O)N[C@H](C(=O)N[C@@H](CS)C(=O)N[C@@H](CCCN=C(N)N)C(=O)N[C@@H](CCCCN)C(=O)N1CCC[C@H]1C(=O)N[C@H](C(=O)N[C@H](C(=O)N[C@@H](CS)C(=O)N[C@@H](CCCN=C(N)N)C(=O)N[C@@H](CCCCN)C(=O)N1CCC[C@H]1C(=O)N[C@H](C(=O)N[C@H](C(=O)N[C@@H](CS)C(=O)N[C@@H](CCCN=C(N)N)C(=O)N[C@@H](CCCCN)C(=O)N1CCC[C@H]1C(=O)N[C@H](C(N)=O)[C@@H](C)CC)[C@@H](C)CC)[C@@H](C)CC)[C@@H](C)CC)[C@@H](C)CC)[C@@H](C)CC)[C@@H](C)CC` [ICRKPIICRKPIICRKPIICRKPI]?
Answer: MIC [4]: > 64 µM; MIC (Escherichia coli UB1005): 2 µM (≈ 5.72 µg/mL); MIC [12]: 8 µM (≈ 22.9 µg/mL); MIC [13]: 16 µM (≈ 45.8 µg/mL); MIC [14]: 2 µM (≈ 5.72 µg/mL); MIC [15]: 4 µM (≈ 11.4 µg/mL); MIC [16]: > 64 µM; MIC [17]: > 64 µM; MIC (Staphylococcus aureus): > 64 µM; MIC [11]: > 64 µM; MIC (Streptococcus agalactiae): ≥ 64 µM

Question: For `CC[C@H](C)[C@H](N)C(=O)N[C@H](C(=O)N[C@@H](CS)C(=O)N[C@@H](CCCN=C(N)N)C(=O)N[C@@H](CCCCN)C(=O)N1CCC[C@H]1C(=O)N[C@H](C(=O)N[C@H](C(=O)N[C@@H](CS)C(=O)N[C@@H](CCCN=C(N)N)C(=O)N[C@@H](CCCCN)C(=O)N1CCC[C@H]1C(=O)N[C@H](C(=O)N[C@H](C(=O)N[C@@H](CS)C(=O)N[C@@H](CCCN=C(N)N)C(=O)N[C@@H](CCCCN)C(=O)N1CCC[C@H]1C(=O)N[C@H](C(=O)N[C@H](C(N)=O)[C@@H](C)CC)[C@@H](C)CC)[C@@H](C)CC)[C@@H](C)CC)[C@@H](C)CC)[C@@H](C)CC)[C@@H](C)CC` [IICRKPIICRKPIICRKPII], which MIC [4] is on record?
Answer: > 64 µM

Question: And the MIC [5]?
Answer: 4 µM (≈ 9.5 µg/mL)

Question: What about the MIC (Escherichia coli UB1005) of the same molecule?
Answer: 4 µM (≈ 9.5 µg/mL)

Question: What about the MIC [12] of the same molecule?
Answer: 16 µM (≈ 38 µg/mL)

Question: And the MIC [13]?
Answer: ≥ 32 µM

Question: What about the MIC [14] of the same molecule?
Answer: 8 µM (≈ 19 µg/mL)

Question: What about the MIC [15] of the same molecule?
Answer: 8 µM (≈ 19 µg/mL)

Question: What about the MIC [16] of the same molecule?
Answer: > 64 µM

Question: And the MIC [17]?
Answer: 64 µM (≈ 152 µg/mL)

Question: And the MIC (Staphylococcus aureus)?
Answer: > 64 µM

Question: What about the MIC [11] of the same molecule?
Answer: 64 µM (≈ 152 µg/mL)

Question: What about the MIC (Streptococcus agalactiae) of the same molecule?
Answer: ≥ 64 µM

Question: Which MIC (Acinetobacter baumannii) does the source give for `CC[C@H](C)[C@H](NC(=O)[C@H](CCCN=C(N)N)NC(=O)[C@H](CCCCN)NC(=O)[C@H](C)NC(=O)[C@@H](NC(=O)[C@@H](N)CCCCN)[C@@H](C)CC)C(=O)N[C@@H](Cc1c[nH]c2ccccc12)C(=O)N[C@@H](CCCCN)C(=O)N[C@H](C(=O)N[C@@H](CC(C)C)C(=O)N[C@@H](CCCN=C(N)N)C(=O)N[C@@H](CCCN=C(N)N)C(=O)N[C@@H](CCCN=C(N)N)C(=O)N[C@@H](CC(C)C)C(=O)N[C@@H](Cc1ccccc1)C(=O)N[C@@H](CCCN=C(N)N)C(=O)N[C@@H](CCCN=C(N)N)C(=O)N[C@H](C(=O)N[C@@H](CCCCN)C(=O)N[C@@H](CCCCN)C(=O)N[C@H](C(=O)N[C@@H](C)C(=O)NCC(N)=O)C(C)C)C(C)C)[C@@H](C)CC` [KIAKRIWKILRRRLFRRVKKVAG] here?
Answer: 2.7 µM (≈ 7.81 µg/mL)

Question: What about the MIC [3] of the same molecule?
Answer: 2.7 µM (≈ 7.81 µg/mL)

Question: What about the MIC [4] of the same molecule?
Answer: 10.8 µM (≈ 31.2 µg/mL)

Question: And the MIC [5]?
Answer: 5.4 µM (≈ 15.6 µg/mL)

Question: What about the MIC (Escherichia coli O157:H7) of the same molecule?
Answer: ≥ 86.4 µM

Question: What about the MIC [6] of the same molecule?
Answer: 1.35 µM (≈ 3.91 µg/mL)

Question: And the MIC [7]?
Answer: 2.7 µM (≈ 7.81 µg/mL)

Question: What about the MIC [8] of the same molecule?
Answer: 2.7 µM (≈ 7.81 µg/mL)

Question: What about the MIC [9] of the same molecule?
Answer: 1.35 µM (≈ 3.91 µg/mL)

Question: And the MIC [10]?
Answer: 5.4 µM (≈ 15.6 µg/mL)

Question: What about the MIC [11] of the same molecule?
Answer: 1.35 µM (≈ 3.91 µg/mL)

Question: And the MIC (Vibrio cholerae O1 Inaba)?
Answer: 2.7 µM (≈ 7.81 µg/mL)

Question: `CC[C@H](C)[C@H](NC(=O)[C@H](C)NC(=O)[C@H](CCCCN)NC(=O)[C@H](CC(C)C)NC(=O)[C@H](C)NC(=O)[C@@H](NC(=O)[C@H](Cc1cnc[nH]1)NC(=O)[C@H](CC(C)C)NC(=O)[C@@H](NC(=O)[C@@H](NC(=O)[C@H](CCCCN)NC(=O)[C@@H](NC(=O)[C@H](C)NC(=O)[C@H](CO)NC(=O)[C@H](CCCCN)NC(=O)[C@H](Cc1ccccc1)NC(=O)[C@@H](NC(=O)[C@H](CCCCN)NC(=O)[C@H](CC(C)C)NC(=O)[C@H](Cc1ccccc1)NC(=O)[C@H](CO)NC(=O)[C@H](CCCCN)NC(=O)[C@H](Cc1c[nH]c2ccccc12)NC(=O)[C@@H](N)CCCCN)[C@@H](C)O)C(C)C)[C@@H](C)O)C(C)C)[C@@H](C)O)C(=O)N[C@@H](CO)C(=O)N[C@@H](CO)C(=O)O` [KWKSFLKTFKSAVKTVLHTALKAISS] was tested. Which MIC (Escherichia coli KF111) did it give?
Answer: 0.342 µM (≈ 1 µg/mL)

Question: What about the MIC (Escherichia coli KF130) of the same molecule?
Answer: 0.342 µM (≈ 1 µg/mL)

Question: And the MIC (Escherichia coli UB1005)?
Answer: 0.171 µM (≈ 0.5 µg/mL)

Question: What about the MIC (Escherichia coli) of the same molecule?
Answer: 0.171 µM (≈ 0.5 µg/mL)

Question: What about the MIC [7] of the same molecule?
Answer: 4 µM (≈ 11.7 µg/mL)

Question: And the MIC [18]?
Answer: 0.685 µM (≈ 2 µg/mL)

Question: What about the MIC [19] of the same molecule?
Answer: 0.685 µM (≈ 2 µg/mL)

Question: And the MIC [20]?
Answer: 0.685 µM (≈ 2 µg/mL)

Question: And the MIC [21]?
Answer: 1.37 µM (≈ 4 µg/mL)

Question: And the MIC (Staphylococcus aureus)?
Answer: 1.37 µM (≈ 4 µg/mL)

Question: And the MIC [22]?
Answer: 1.37 µM (≈ 4 µg/mL)

Question: For `CC[C@H](C)[C@H](NC(=O)[C@H](C)NC(=O)[C@H](CCCCN)NC(=O)[C@H](CC(C)C)NC(=O)[C@H](C)NC(=O)[C@@H](NC(=O)[C@H](Cc1cnc[nH]1)NC(=O)[C@H](Cc1ccccc1)NC(=O)[C@@H](NC(=O)[C@@H](NC(=O)[C@H](CCCCN)NC(=O)[C@H](C)NC(=O)[C@@H]1CCCN1C(=O)[C@H](CO)NC(=O)[C@H](CCCCN)NC(=O)[C@H](CC(C)C)NC(=O)[C@@H](NC(=O)[C@H](CCCN=C(N)N)NC(=O)[C@H](CC(C)C)NC(=O)[C@H](Cc1ccccc1)NC(=O)[C@H](CO)NC(=O)[C@H](CCCCN)NC(=O)[C@H](Cc1c[nH]c2ccccc12)NC(=O)[C@@H](N)CCCCN)[C@@H](C)O)[C@@H](C)O)C(C)C)[C@@H](C)O)C(=O)N[C@@H](CO)C(=O)N[C@@H](CO)C(=O)O` [KWKSFLRTLKSPAKTVFHTALKAISS], which MIC (Escherichia coli KF111) is on record?
Answer: 0.339 µM (≈ 1 µg/mL)

Question: And the MIC (Escherichia coli KF130)?
Answer: 0.339 µM (≈ 1 µg/mL)

Question: And the MIC (Escherichia coli UB1005)?
Answer: 0.17 µM (≈ 0.5 µg/mL)

Question: What about the MIC (Escherichia coli) of the same molecule?
Answer: 0.17 µM (≈ 0.5 µg/mL)

Question: And the MIC [18]?
Answer: 2.72 µM (≈ 8 µg/mL)

Question: And the MIC [19]?
Answer: 2.72 µM (≈ 8 µg/mL)

Question: And the MIC [20]?
Answer: 5.43 µM (≈ 16 µg/mL)

Question: What about the MIC [21] of the same molecule?
Answer: 1.36 µM (≈ 4 µg/mL)

Question: What about the MIC (Staphylococcus aureus) of the same molecule?
Answer: 10.9 µM (≈ 32 µg/mL)

Question: What about the MIC [22] of the same molecule?
Answer: 1.36 µM (≈ 4 µg/mL)
